Several values for one entry are separate records, joined by “and”; a condition that tells them apart may be missing. Equal values may be shown once. Read-outs that look alike come from different tables or passages of the source.
Key:
[1] = for -Initial slope, k: 8.6 mg/L H2O2 injected, 6 trays, 20 min pre-plasma, first 50 seconds after maximum concentration
Experimental: (§1) The pressure inside the chamber was also monitored as a function of time. After the completion of the sterilization cycle, the chamber was vented, the equipment was removed, and the inoculated coupons were tested for growth in the medium. […] The sterilization results and the summary of the various methods of analyzing the hydrogen concentration data are shown in Table 2 below.
The data were analyzed in various ways to determine whether a method could be found to quickly determine the suitability of the load for sterilization.
FIGS. 5-8 show graphs of ln(c/c0) versus time for a validation load (FIG. 5), a heavy load (FIG. 6), a heavy load with a new towel (FIG. 7), and a heavy load with an old towel (FIG. 8).
The initial slopes in Table 2 are recorded as the negative of the initial slopes for simplicity in recording the data.
The final concentration is measured at the end of the diffusion step 50, prior to evacuating and generating the post-injection plasma.

[2] = test system: Bacillus stearothermophilus spores
Experimental: The sterilization process was run under the following conditions:
The trays containing the inoculated coupons and the various loads were wrapped with sterilization wrap and sealed with sterilization tape.
The effectiveness of the sterilization process was determined by placing stainless steel coupons inoculated with >10^6 Bacillus stearothermophilus spores as biological indicators (BI's) into 3 mm×400 mm stainless steel lumens. The lumens were placed into double-wrapped sterilizer trays with the loads of medical instruments to be sterilized. At the end of the cycle, the BIs were recovered from the lumens, placed into tubes of TSB (Trypticase soy broth) medium and incubated at 55-60° C. for 14 days. The biological activity was then determined.
as §1

[3] = Group 7 validation loads with one towel
[4] = Group 8 validation loads with two towels

SMILES: OO [hydrogen peroxide]
- Initial slope, average ([1]; Group 1 runs with the validation loads): 0.00983 s⁻¹
- -Initial slope, k ([1]; Group 2: heavy load, 1 filter): 0.016 s⁻¹
- -Initial slope, k ([1]; Group 2: heavy load, 2 filters): 0.017 s⁻¹
- -Initial slope, k ([1]; Group 2: heavy load, brass): 0.012 s⁻¹
- -Initial slope, k ([1]; Group 2: heavy load, mat): 0.013 s⁻¹
- -Initial slope, k ([1]; Group 2: heavy load): 0.016 s⁻¹
- Initial slope, average ([1]; Group 2 runs with the heavy loads): 0.0145 s⁻¹
- Initial slopes, range over runs ([1]; Group 2 runs with the heavy loads (all variants)): 0.012 to 0.017 s⁻¹
- -Initial slope, k ([1]; Group 3: heavy load, 1 new towel): 0.026 s⁻¹
- -Initial slope, k ([1]; Group 3: heavy load, 2 new towels): 0.028 s⁻¹
- -Initial slope, k ([1]; Group 3: heavy load, 6/8 towel): 0.019 s⁻¹
- Initial slope, average ([1]; Group 3 runs with the heavy loads and new towel): 0.0243 s⁻¹
- Initial slopes, range over runs ([1]; Group 3 runs with the heavy loads and new towel (all variants)): 0.019 to 0.028 s⁻¹
- -Initial slope, k ([1]; Group 4: heavy load, 1 old towel): 0.039 s⁻¹ and 0.025 s⁻¹
- Initial slope, average ([1]; Group 4 runs with the heavy loads and old towel): 0.032 s⁻¹
- Initial slope, average ([1]; Group 5 runs with the cold validation loads and 15 minutes of pre-plasma): 0.0095 s⁻¹
- Initial slope, average ([1]; Group 6 runs with the cold condensing validation loads with no pre-plasma): 0.0164 s⁻¹
- Initial slope, average [1, 3]: 0.0195 s⁻¹
- Initial slope, average [1, 4]: 0.028 s⁻¹
- Initial slope by type of load ([1]; cold, condensing load): 0.016 s⁻¹
- Initial slope by type of load ([1]; heavy load): 0.015 s⁻¹
- Initial slope by type of load ([1]; heavy load with towel): > 0.020 s⁻¹
- Initial slope by type of load ([1]; validation load): 0.010 s⁻¹
- Fraction Positive BIs ([2]; Group 1: validation load, 8.6 or 9.3 mg/L H2O2 injected, 6 trays, 20 min pre-plasma): 0/10
- BI's of all runs of the group ([2]; Group 1 validation loads): negative
- Fraction Positive BIs ([2]; Group 2: heavy load, 1 filter, 8.6 mg/L H2O2 injected, 6 trays, 20 min pre-plasma): 0/10
- Fraction Positive BIs ([2]; Group 2: heavy load, 2 filters, 8.6 mg/L H2O2 injected, 6 trays, 20 min pre-plasma): 0/10
- Fraction Positive BIs ([2]; Group 2: heavy load, brass, 8.6 mg/L H2O2 injected, 6 trays, 20 min pre-plasma): 0/10
- Fraction Positive BIs ([2]; Group 2: heavy load, mat, 8.6 mg/L H2O2 injected, 6 trays, 20 min pre-plasma): 0/10
- Fraction Positive BIs ([2]; Group 2: heavy load, 8.6 mg/L H2O2 injected, 6 trays, 20 min pre-plasma): 1/10
- Positive BI's, total of all runs of the group ([2]; Group 2 heavy loads): 1 of the 60
- Fraction Positive BIs ([2]; Group 3: heavy load, 1 new towel, 8.6 mg/L H2O2 injected, 6 trays, 20 min pre-plasma): 6/10
- Fraction Positive BIs ([2]; Group 3: heavy load, 2 new towels, 8.6 mg/L H2O2 injected, 6 trays, 20 min pre-plasma): 5/10
- Fraction Positive BIs ([2]; Group 3: heavy load, 6/8 towel, 8.6 mg/L H2O2 injected, 6 trays, 20 min pre-plasma): 3/10
- Positive BI's, total of all runs of the group ([2]; Group 3 heavy load/new towel runs): 14/30
- Fraction Positive BIs ([2]; Group 4: heavy load, 1 old towel, 8.6 mg/L H2O2 injected, 6 trays, 20 min pre-plasma): 10/10
- Positive BI's, total of all runs of the group ([2]; Group 4 heavy load/old towel runs): 20 of the 20
- Fraction Positive BIs ([2]; Group 5: validation load, initial load temperature 5° C., 9.3 mg/L H2O2 injected, 4 trays, 15 min pre-plasma): 0/12
- BI's of all runs of the group ([2]; Group 5 cold validation loads, 15 minutes of pre-plasma, 72 BI's): negative
- Fraction Positive BIs ([2]; Group 6: validation load, initial load temperature 5° C., 9.3 mg/L H2O2 injected, 4 trays, no pre-plasma): 0/12
- BI's of all runs of the group ([2]; Group 6 cold condensing validation loads, no pre-plasma): negative
- Positive BI's, total of all runs of the group [2, 3]: 4/72
- Positive BI's, total of all runs of the group [2, 4]: 3/73
